Assays:
[1] = system: cell functions and key regulatory proteins; experiment: Impact of MSDC-0602K vs overnutrition on cell functions and key regulatory proteins (Table 1)
[2] = system: patients with biopsy-proven NASH with fibrosis and no cirrhosis; experiment: EMMINENCE Phase 2b trial, liver histology at 12 months; format: in vivo, human; conditions: for subjects showing NAS histological improvement: PNPLA3 rs738409-G both copies (GG genotype)
Description: embodiments, the histological features are measured by a NAFLD Activity Score (NAS). The scoring system comprised 14 histological features, 4 of which are evaluated semi-quantitatively: steatosis (0-3), lobular inflammation (0-2), hepatocellular ballooning (0-2), and fibrosis (0-4). Another nine features are recorded as present or absent. A liver biopsy of the subject is formalin-fixed and paraffin-embedded. Serial sections of the liver biopsy are hematoxylin and eosin (H&E) stained. The liver biopsy stained sections are examined for NAS scores. For example, hepatocellular ballooning is graded from 0 to 2 (0: normal hepatocytes with cuboidal shape and pink eosinophilic cytoplasm; 1: presence of clusters of hepatocytes with a rounded shape and pale cytoplasm usually reticulated. Lobular inflammation is defined as a focus of two or more inflammatory cells within the lobule. Foci are counted at 20 magnification (0: none; 1: 2 foci per 20; 2: >2 foci per 20).
Study Design: EMMINENCE was a randomized, double-blind evaluation of three oral daily doses of MSDC-0602K (62.5 mg, 125 mg and 250 mg) or placebo given for 12 months to adult patients with biopsy-proven NASH with fibrosis and no cirrhosis. The primary efficacy endpoint was assessed at 12 months. Clinic visits were conducted at baseline, 1, 2, 3, 6, 9, and 12 months, followed 2 weeks later by a safety visit. An interim analysis of safety and efficacy not related to the primary and secondary endpoints was conducted when 6 month data were available for 328 patients (see Example 5, above.) Interim results were provided only as summary statistics to avoid any unmasking of the study team or sponsor.
Participants: Eligible patients were at least 18 years old with NASH (NAS≥4; score ≥1 in each component [steatosis, ballooning, inflammation]) with F1 to F3 fibrosis on liver biopsy taken between 9 months prior to screening and randomization according to a central histopathologist.
If no usable liver biopsy was available within 9 months prior to screening, a percutaneous liver biopsy was performed in patients with AST≥20 U/L and FibroScan CAP score ≥270 db/m and kPa≥8.5. Digitized slides were read by a single expert histopathologist according to NASH Clinical Research Network criteria. Baseline biopsies were read first for study qualification and a second time mixed randomly among 12-month biopsies. Fasting blood samples for routine central laboratory analyses were collected at each visit, and frozen samples collected at selected visits for biomarker assays.
Efficacy endpoints: The primary efficacy endpoint was hepatic histological improvement in NAS defined as ≥2-point NAS decrease with a ≥1-point reduction in either ballooning or lobular inflammation and no increase in fibrosis stage at 12 months. Secondary efficacy endpoints included (1) NASH resolution defined as hepatocellular ballooning score of 0 and lobular inflammation score of 0-1 with no increase in fibrosis stage at 12 months, (2) fibrosis improvement defined as ≥1-stage decrease in fibrosis with no worsening of lobular inflammation or hepatocellular ballooning, (3) change from baseline in NAFLD activity score (NAS) and each one of its components (steatosis, lobular inflammation and ballooning) at 12 months, and (4) change from baseline in fibrosis score at 12 months. Exploratory efficacy endpoints included shifts in the central histopathologist's NASH diagnosis confirmation, and changes from baseline to 12 months in markers of glycemic control and insulin sensitivity, liver function/injury, and apoptosis and liver fibrosis.
Using a modified intent-to-treat approach, treated patients were included for analysis in their randomly-assigned treatment groups. Participation of sites with serious GCP or quality concerns were terminated and their data excluded from the analyses. Post-baseline measures through 14 days after the last study drug dose were included. No errors in treatment assignment occurred. […]

[3] = 125 mg and 250 mg combined vs placebo, 12 months
[4] = 125 mg and 250 mg combined, 12 months

## COc1cccc(C(=O)COc2ccc(CC3SC(=O)NC3=O)cc2)c1 (centres unmarked) [MSDC-0602K]
[1]
  Fatty acid oxidation (burning fat): Increased
  HIF1α: Decreased
  Inflammation (ballooning due to injury): Decreased
  Insulin sensitivity (cellular response to insulin): Increased
  PPARγ, PPARα: Increased
  SREBP: Decreased
  de novo lipid synthesis (making new fat): Decreased
  mTORC1: Decreased
[2]; 62.5 mg
  confirmed NASH diagnosis at baseline (re-read) not confirmed at 12 months: 32.1%
  subjects showing NAS histological improvement: about 17.9%
[2]; 62.5 mg vs placebo, 12 months
  Fibrosis improvement, adjusted OR: 1.19
  Fibrosis improvement, adjusted risk difference: 0.028
  NAS improvement, adjusted OR: 0.89
  NAS improvement, adjusted risk difference: −0.020
  NASH resolution, adjusted OR: 1.09
  NASH resolution, adjusted risk difference: 0.013
[2]; 62.5 mg, 12 months
  Fibrosis improvement, % of patients: (23.8) %
  Fibrosis improvement, n/N: 20/84
  NAS improvement (primary endpoint), n/N: 25/84
  NASH resolution, % of patients: (20.2) %
  NASH resolution, n/N: 17/84
[2]; 125 mg
  adjusted mean difference in NAS change to 12 months vs placebo: −0.6 points
  adjusted mean difference in steatosis change to 12 months vs placebo: −0.2 points
  confirmed NASH diagnosis at baseline (re-read) not confirmed at 12 months: 26.5%
[2]; [3]
  Fibrosis improvement, adjusted OR: 1.48
  Fibrosis improvement, adjusted risk difference: 0.073
  NAS improvement, adjusted OR: 1.43
  NAS improvement, adjusted risk difference: 0.075
  NASH resolution, adjusted OR: 1.66
  NASH resolution, adjusted risk difference: 0.093
[2]; [4]
  Fibrosis improvement, % of patients: (28.6) %
  Fibrosis improvement, n/N: 48/168
  NAS improvement (primary endpoint), % of patients: (36.3) %
  NAS improvement (primary endpoint), n/N: 61/168
  NASH resolution, % of patients: (29.8) %
  NASH resolution, n/N: 50/168
[2]; 125 mg vs placebo, 12 months
  Fibrosis improvement, adjusted OR: 1.45
  Fibrosis improvement, adjusted risk difference: 0.067
  NAS improvement, adjusted OR: 1.22
  NAS improvement, adjusted risk difference: 0.044
  NASH resolution, adjusted OR: 1.50
  NASH resolution, adjusted risk difference: 0.075
[2]; 125 mg, 12 months
  Fibrosis improvement, % of patients: (28.0) %
  Fibrosis improvement, n/N: 23/82
  NAS improvement (primary endpoint), n/N: 27/82
  NASH resolution, % of patients: (28.0) %
  NASH resolution, n/N: 23/82
[2]; 250 mg
  adjusted mean difference in NAS change to 12 months vs placebo: −0.5 points
  adjusted mean difference in steatosis change to 12 months vs placebo: −0.3 points
  confirmed NASH diagnosis at baseline (re-read) not confirmed at 12 months: 30.2%
  subjects showing NAS histological improvement: about 34.5%
[2]; 250 mg vs placebo, 12 months
  Fibrosis improvement, adjusted OR: 1.51
  Fibrosis improvement, adjusted risk difference: 0.077
  NAS improvement, adjusted OR: 1.64
  NAS improvement, adjusted risk difference: 0.104
  NASH resolution, adjusted OR: 1.82
  NASH resolution, adjusted risk difference: 0.108
[2]; 250 mg, 12 months
  Fibrosis improvement, % of patients: (29.1) %
  Fibrosis improvement, n/N: 25/86
  NAS improvement (primary endpoint), n/N: 34/86
  NASH resolution, % of patients: (31.4) %
  NASH resolution, n/N: 27/86

From patent US20240216344A1, “THIAZOLIDINEDIONE ANALOGS FOR THE TREATMENT OF NAFLD AND METABOLIC DISEASES” (Cirius Therapeutics, Inc., priority 2019, published 2024)
